Key:
hNaV1.7 = hNaV1.7 (Homo sapiens, UniProt Q15858); format: cell-based
[1] = tested on: hNaV1.1, 1.2, 1.6, 1.7, 1.3; conditions: ref Gonçalves et al., 2018, cited from earlier work

hNaV1.7, sequence (Q07699 19-218): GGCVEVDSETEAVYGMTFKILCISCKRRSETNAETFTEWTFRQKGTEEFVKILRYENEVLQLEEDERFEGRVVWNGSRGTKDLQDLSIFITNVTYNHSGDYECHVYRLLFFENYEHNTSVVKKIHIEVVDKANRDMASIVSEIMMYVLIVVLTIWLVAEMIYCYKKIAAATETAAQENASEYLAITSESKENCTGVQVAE
hNaV1.7, sequence (Q15858 whole entry): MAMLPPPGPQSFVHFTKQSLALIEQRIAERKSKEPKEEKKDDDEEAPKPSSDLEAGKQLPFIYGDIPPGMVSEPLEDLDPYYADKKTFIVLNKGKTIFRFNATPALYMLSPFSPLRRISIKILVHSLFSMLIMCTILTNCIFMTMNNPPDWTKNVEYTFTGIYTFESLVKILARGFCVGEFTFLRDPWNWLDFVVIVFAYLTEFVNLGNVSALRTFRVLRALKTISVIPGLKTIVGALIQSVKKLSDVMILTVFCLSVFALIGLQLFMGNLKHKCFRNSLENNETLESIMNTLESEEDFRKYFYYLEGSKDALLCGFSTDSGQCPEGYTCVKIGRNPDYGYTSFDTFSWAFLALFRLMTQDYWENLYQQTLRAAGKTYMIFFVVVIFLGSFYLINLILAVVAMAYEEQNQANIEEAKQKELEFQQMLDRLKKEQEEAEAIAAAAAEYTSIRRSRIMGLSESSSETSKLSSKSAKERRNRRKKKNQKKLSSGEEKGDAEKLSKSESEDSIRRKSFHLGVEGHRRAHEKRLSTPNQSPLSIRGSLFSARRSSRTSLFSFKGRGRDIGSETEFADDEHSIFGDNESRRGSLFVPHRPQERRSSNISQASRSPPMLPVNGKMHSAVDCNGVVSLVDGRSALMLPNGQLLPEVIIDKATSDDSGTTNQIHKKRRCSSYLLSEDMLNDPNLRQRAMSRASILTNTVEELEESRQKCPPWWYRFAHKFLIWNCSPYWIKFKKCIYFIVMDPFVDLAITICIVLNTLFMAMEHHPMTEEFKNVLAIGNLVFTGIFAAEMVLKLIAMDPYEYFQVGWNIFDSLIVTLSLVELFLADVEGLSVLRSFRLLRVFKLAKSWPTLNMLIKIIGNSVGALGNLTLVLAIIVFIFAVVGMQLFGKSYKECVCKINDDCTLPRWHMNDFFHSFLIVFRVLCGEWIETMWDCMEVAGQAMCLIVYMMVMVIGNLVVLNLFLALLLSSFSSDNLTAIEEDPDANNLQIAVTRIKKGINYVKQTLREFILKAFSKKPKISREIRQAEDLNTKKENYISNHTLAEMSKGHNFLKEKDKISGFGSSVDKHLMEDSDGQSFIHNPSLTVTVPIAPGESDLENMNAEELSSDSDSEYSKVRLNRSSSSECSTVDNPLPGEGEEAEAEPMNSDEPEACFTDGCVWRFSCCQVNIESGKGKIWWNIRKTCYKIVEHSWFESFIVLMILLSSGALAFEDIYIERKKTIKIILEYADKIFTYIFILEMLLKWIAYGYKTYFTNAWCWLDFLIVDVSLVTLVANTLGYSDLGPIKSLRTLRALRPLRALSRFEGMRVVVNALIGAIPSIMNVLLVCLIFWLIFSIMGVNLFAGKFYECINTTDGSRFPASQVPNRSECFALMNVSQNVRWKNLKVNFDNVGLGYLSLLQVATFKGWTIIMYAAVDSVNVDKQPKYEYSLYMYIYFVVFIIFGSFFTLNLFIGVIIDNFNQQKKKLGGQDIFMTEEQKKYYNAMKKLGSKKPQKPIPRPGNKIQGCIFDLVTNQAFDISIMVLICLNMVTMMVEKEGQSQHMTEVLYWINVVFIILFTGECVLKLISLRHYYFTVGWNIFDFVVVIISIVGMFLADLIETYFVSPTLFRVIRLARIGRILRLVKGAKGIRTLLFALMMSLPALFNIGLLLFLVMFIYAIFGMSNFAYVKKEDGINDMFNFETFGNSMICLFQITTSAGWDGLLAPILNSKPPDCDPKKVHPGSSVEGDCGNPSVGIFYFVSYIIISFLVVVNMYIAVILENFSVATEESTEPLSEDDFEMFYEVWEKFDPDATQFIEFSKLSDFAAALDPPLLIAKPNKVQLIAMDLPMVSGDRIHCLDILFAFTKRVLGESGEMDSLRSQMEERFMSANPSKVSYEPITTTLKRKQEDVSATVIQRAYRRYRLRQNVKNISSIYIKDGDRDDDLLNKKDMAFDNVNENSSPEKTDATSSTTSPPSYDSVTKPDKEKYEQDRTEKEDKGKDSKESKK

Compound: NC1=N[C@H](O)[C@H]2[C@H]3O[C@]4(O)O[C@@H]([C@@H](O)[C@@]2(N1)[C@@H]4O)[C@]3(O)CO [Tetrodotoxin (TTX), Tetrodotoxin]
- inhibition of veratridine + OD1 activated responses (hNaV1.7): fully inhibited

Compound: HwTx-IV: NaSpTx1 family spider toxin, 40% sequence identity with Ssp1a
- IC50 ([1]; range over hNaV1.1, 1.2, 1.6, 1.7, 1.3, read-out: IC50 at five hNaV subtypes): 41 to 190 nM
- rank order of potency [1]: hNaV1.1 > 1.2 > 1.6 > 1.7 > 1.3

From paper PMC8740163, “Voltage-Gated Sodium Channel Modulation by a New Spider Toxin Ssp1a Isolated From an Australian Theraphosid” (Frontiers in Pharmacology, 2021)
